Measured values from patent publication US6352958B1, “Cycloimido-substituted benzofused heterocyclic herbicides” (FMC Corporation, priority 1997, dated 2002).

Tests used:
Format in all cases: in vivo
[1] = test system: wheat (Triticum aestivum var. Lew); assay: Postemergence herbicidal activity, wheat; details: rate of application 0.3 Kg/Ha, rated after 12-17 days
[2] = test system: green foxtail (Setaria viridis); assay: Preemergence herbicidal activity, green foxtail; details: Rate of Application 0.3 Kg/Ha, examined after 12-17 days
[3] = test system: field corn (Zea mays var. Pioneer 3732); assay: Preemergence herbicidal activity, corn; details: Rate of Application 0.3 Kg/Ha, examined after 12-17 days
[4] = test system: morningglory (Ipomea lacunosa or Ipomea hederacea); assay: Postemergence herbicidal activity, morningglory; details: rate of application 0.3 Kg/Ha, rated after 12-17 days
[5] = test system: velvetleaf (Abutilon theophrasti); assay: Preemergence herbicidal activity, velvetleaf; details: Rate of Application 0.3 Kg/Ha, examined after 12-17 days
[6] = test system: field corn (Zea mays var. Pioneer 3732); assay: Postemergence herbicidal activity, corn; details: rate of application 0.3 Kg/Ha, rated after 12-17 days
[7] = test system: blackgrass (Aloepecurus myosuroides); assay: Preemergence herbicidal activity, blackgrass; details: Rate of Application 0.3 Kg/Ha, examined after 12-17 days
[8] = test system: common cocklebur (Xanthium strumarium L.); assay: Preemergence herbicidal activity, cocklebur; details: Rate of Application 0.3 Kg/Ha, examined after 12-17 days
[9] = test system: Johnsongrass (Sorghum halepense); assay: Postemergence herbicidal activity, johnsongrass; details: rate of application 0.3 Kg/Ha, rated after 12-17 days
[10] = test system: morningglory (Ipomea lacunosa or Ipomea hederacea); assay: Preemergence herbicidal activity, morningglory; details: Rate of Application 0.3 Kg/Ha, examined after 12-17 days
[11] = test system: blackgrass (Aloepecurus myosuroides); assay: Postemergence herbicidal activity, blackgrass; details: rate of application 0.3 Kg/Ha, rated after 12-17 days
[12] = test system: common chickweed (Stellaria media); assay: Preemergence herbicidal activity, chickweed; details: Rate of Application 0.3 Kg/Ha, examined after 12-17 days
[13] = test system: green foxtail (Setaria viridis); assay: Postemergence herbicidal activity, green foxtail; details: rate of application 0.3 Kg/Ha, rated after 12-17 days
[14] = test system: soybean (Glycine max var. Winchester); assay: Postemergence herbicidal activity, soybean; details: rate of application 0.3 Kg/Ha, rated after 12-17 days
[15] = test system: Johnsongrass (Sorghum halepense); assay: Preemergence herbicidal activity, johnsongrass; details: Rate of Application 0.3 Kg/Ha, examined after 12-17 days
[16] = test system: velvetleaf (Abutilon theophrasti); assay: Postemergence herbicidal activity, velvetleaf; details: rate of application 0.3 Kg/Ha, rated after 12-17 days
[17] = test system: wheat (Triticum aestivum var. Lew); assay: Preemergence herbicidal activity, wheat; details: Rate of Application 0.3 Kg/Ha, examined after 12-17 days
[18] = test system: common chickweed (Stellaria media); assay: Postemergence herbicidal activity, chickweed; details: rate of application 0.3 Kg/Ha, rated after 12-17 days
[19] = test system: soybean (Glycine max var. Winchester); assay: Preemergence herbicidal activity, soybean; details: Rate of Application 0.3 Kg/Ha, examined after 12-17 days
[20] = test system: common cocklebur (Xanthium strumarium L.); assay: Postemergence herbicidal activity, cocklebur; details: rate of application 0.3 Kg/Ha, rated after 12-17 days

| Structure (SMILES) | Postemergence herbicidal activity (% control) WHT [1] | PREEMERGENCE HERBICIDAL ACTIVITY (% CONTROL) SETVI [2] | PREEMERGENCE HERBICIDAL ACTIVITY (% CONTROL) CRN [3] | Postemergence herbicidal activity (% control) IPOSS [4] | PREEMERGENCE HERBICIDAL ACTIVITY (% CONTROL) SOY [19] | PREEMERGENCE HERBICIDAL ACTIVITY (% CONTROL) ABUTH [5] | Postemergence herbicidal activity (% control) CRN [6] | PREEMERGENCE HERBICIDAL ACTIVITY (% CONTROL) ALOMY [7] | PREEMERGENCE HERBICIDAL ACTIVITY (% CONTROL) XANPE [8] | Postemergence herbicidal activity (% control) SORHA [9] | PREEMERGENCE HERBICIDAL ACTIVITY (% CONTROL) IPOSS [10] | Postemergence herbicidal activity (% control) ALOMY [11] | Postemergence herbicidal activity (% control) SETVI [13] | Postemergence herbicidal activity (% control) SOY [14] | PREEMERGENCE HERBICIDAL ACTIVITY (% CONTROL) SORHA [15] | Postemergence herbicidal activity (% control) ABUTH [16] | PREEMERGENCE HERBICIDAL ACTIVITY (% CONTROL) WHT [17] | Postemergence herbicidal activity (% control) STEME [18] | PREEMERGENCE HERBICIDAL ACTIVITY (% CONTROL) STEME [12] | also measured |
| --- | --- | --- | --- | --- | --- | --- | --- | --- | --- | --- | --- | --- | --- | --- | --- | --- | --- | --- | --- | --- |
| Cn1c(C(F)(F)F)cc(=O)n(-c2c(F)cc(Cl)c3[nH]c(C(F)(F)F)nc23)c1=O [Compound 365, 3-(4-CHLORO-6-FLUORO-2-TRIFLUOROMETHYLBENZIMIDAZOL-7-YL)-1-METHYL-6-TRIFLUOROMETHYL-2,4(1H,3H)-PYRIMIDINEDIONE] | – | – | – | – | – | – | – | – | – | – | – | – | – | – | – | – | – | – | – | inhibition at 300 g/ha ([1]; Triticum aestivum, post-emergence, read-out: Postemergence herbicidal activity (% control) WHT): 40%; inhibition at 300 g/ha ([2]; Setaria viridis, pre-emergence, read-out: PREEMERGENCE HERBICIDAL ACTIVITY (% CONTROL) SETVI): 75%; inhibition at 300 g/ha ([3]; Zea mays, pre-emergence, read-out: PREEMERGENCE HERBICIDAL ACTIVITY (% CONTROL) CRN): 30%; inhibition at 300 g/ha ([4]; Ipomoea, post-emergence, read-out: Postemergence herbicidal activity (% control) IPOSS): 100%; inhibition at 300 g/ha ([5]; Abutilon theophrasti, pre-emergence, read-out: PREEMERGENCE HERBICIDAL ACTIVITY (% CONTROL) ABUTH): 100%; inhibition at 300 g/ha ([6]; Zea mays, post-emergence, read-out: Postemergence herbicidal activity (% control) CRN): 70%; inhibition at 300 g/ha ([7]; Alopecurus myosuroides, pre-emergence, read-out: PREEMERGENCE HERBICIDAL ACTIVITY (% CONTROL) ALOMY): 60%; inhibition at 300 g/ha ([8]; Xanthium strumarium, pre-emergence, read-out: PREEMERGENCE HERBICIDAL ACTIVITY (% CONTROL) XANPE): 100%; inhibition at 300 g/ha ([9]; Sorghum halepense, post-emergence, read-out: Postemergence herbicidal activity (% control) SORHA): 30%; inhibition at 300 g/ha ([10]; Ipomoea, pre-emergence, read-out: PREEMERGENCE HERBICIDAL ACTIVITY (% CONTROL) IPOSS): 100%; inhibition at 300 g/ha ([11]; Alopecurus myosuroides, post-emergence, read-out: Postemergence herbicidal activity (% control) ALOMY): 70%; inhibition at 300 g/ha ([12]; Stellaria media, pre-emergence, read-out: PREEMERGENCE HERBICIDAL ACTIVITY (% CONTROL) STEME): 100%; inhibition at 300 g/ha ([13]; Setaria viridis, post-emergence, read-out: Postemergence herbicidal activity (% control) SETVI): 80%; inhibition at 300 g/ha ([14]; Glycine max, post-emergence, read-out: Postemergence herbicidal activity (% control) SOY): 100%; inhibition at 300 g/ha ([15]; Sorghum halepense, pre-emergence, read-out: PREEMERGENCE HERBICIDAL ACTIVITY (% CONTROL) SORHA): 60%; inhibition at 300 g/ha ([16]; Abutilon theophrasti, post-emergence, read-out: Postemergence herbicidal activity (% control) ABUTH): 100%; inhibition at 300 g/ha ([17]; Triticum aestivum, pre-emergence, read-out: PREEMERGENCE HERBICIDAL ACTIVITY (% CONTROL) WHT): 30%; inhibition at 300 g/ha ([18]; Stellaria media, post-emergence, read-out: Postemergence herbicidal activity (% control) STEME): 100% |
| CNC(=O)c1cc2c(Cl)ccc(-n3c(=O)cc(C(F)(F)F)n(C)c3=O)c2o1 [Compound 270] | 40% | 100% | 90% | 60% | 70% | 100% | 50% | 65% | 60% | 50% | 100% | 50% | 50% | 70% | 100% | 100% | 70% | 40% | – | – |
| CC(C)Oc1nc2c(-n3c(=O)cc(C(F)(F)F)n(C)c3=O)c(F)cc(Br)c2o1 [Compound 107] | 40% | 100% | 90% | 100% | 80% | 100% | 100% | 75% | 40% | 100% | 100% | 90% | 100% | 95% | 100% | 100% | 60% | 100% | 100% | – |
| COCOC(C)(C)c1cc2c(Cl)cc(F)c(-n3c(=O)cc(C(F)(F)F)n(C)c3=O)c2o1 [Compound 252] | 90% | 100% | 100% | 100% | 100% | 100% | 100% | 100% | – | 100% | 100% | 100% | 100% | 95% | 100% | 100% | 100% | 100% | 100% | – |
| C=C(C)c1cc2c(Cl)cc(F)c(-n3c(=O)cc(C(F)(F)F)n(C)c3=O)c2o1 [Compound 231] | 70% | 100% | 100% | 100% | 100% | 100% | 100% | 90% | 100% | 100% | 100% | 100% | 100% | 100% | 100% | 100% | 80% | 100% | 100% | – |
| Cn1c(C(F)(F)F)cc(=O)n(-c2ccc(Cl)c3cc(C=NO)oc23)c1=O [Compound 258] | 30% | 40% | 75% | 70% | 30% | 100% | 60% | – | 60% | 50% | 60% | 30% | 60% | 80% | 40% | 80% | 30% | 5% | 0% | Postemergence herbicidal activity (% control) XANPE [20]: 50% |
